Measurements reported in US8288371B2, “Ortho pyrrolidine, benzyl-substituted heterocycle CCR1 antagonists for autoimmune diseases and inflammation” (Pharmacopeia, LLC, priority 2007, dated 2012).

biological target: T1, human CCR1 (Homo sapiens, UniProt P32246); assay: CCR1 binding protocol (SPA, [125I]-MIP-1α displacement); settings: cell membrane expressing human CCR1, 0.1 nM [125I]-MIP-1α, 4 hours at ambient temperature; read-out: Relative potency (IC50)
T1 sequence (P32246 1-355): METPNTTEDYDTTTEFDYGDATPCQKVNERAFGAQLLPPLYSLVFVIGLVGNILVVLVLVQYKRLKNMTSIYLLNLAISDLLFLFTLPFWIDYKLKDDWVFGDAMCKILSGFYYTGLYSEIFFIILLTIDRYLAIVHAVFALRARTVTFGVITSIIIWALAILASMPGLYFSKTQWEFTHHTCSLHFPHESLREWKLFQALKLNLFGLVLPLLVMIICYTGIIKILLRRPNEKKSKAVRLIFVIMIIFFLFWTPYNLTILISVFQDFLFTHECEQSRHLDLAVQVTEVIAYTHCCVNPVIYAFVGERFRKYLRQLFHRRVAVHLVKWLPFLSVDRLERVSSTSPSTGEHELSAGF
Outline: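 Human CCR1 membranes (0.5 μg/well) on SPA beads were incubated with compound and 0.1 nM [125I]-MIP-1α (final) for 4 h at ambient temperature. Buffer was Tris pH 7.4 with NaCl, KCl, MnCl and 0.1% BSA. IC50 came from ½-log compound dilutions (10 mM top DMSO stock) by displacement of bound radioligand.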

Compared with `Cc1nnc([C@H]2C[C@H](O)CN2C(=O)Nc2ccc(Cl)c(C(F)(F)F)c2)n1Cc1ccc(Cl)cc1` [Compound 437], `Cc1nnc([C@H]2CCCN2C(=O)Nc2ccc(Cl)c(C(F)(F)F)c2)n1Cc1ccc(Br)cc1` [Compound 568] is higher in IC50: < 50 nM for the first, 50 to 500 nM for the second. The first is the more potent here.

`Cc1nnc([C@H]2C[C@@H](O)CN2C(=O)NCc2ccc(Cl)cc2Cl)n1Cc1ccc(Cl)cc1` [Compound 442] and `Cc1nnc([C@H]2C[C@H](O)CN2C(=O)NCc2ccc(C(F)(F)F)cc2)n1Cc1ccc(Cl)cc1` [Compound 471] cannot be ordered by IC50: < 50 nM for the first, < 50 nM for the second.

`Cc1nnc([C@H]2CCCN2C(=O)Nc2c(Cl)nc(N)nc2Cl)n1Cc1ccc(Cl)cc1` [Compound 192] and `Cc1cc(Cl)cc(C)c1NC(=O)N1CCC[C@@H]1c1nnc(C)n1Cc1ccc(Cl)cc1` [Compound 115] cannot be ordered by IC50: < 50 nM for the first, < 50 nM for the second.

Compared with `Cc1onc(C(F)(F)F)c1NC(=O)N1CCC[C@@H]1c1nnc(C)n1Cc1ccc(Cl)cc1` [Compound 615], `Cc1noc(C)c1NC(=O)N1CCC[C@@H]1c1nnc(CO)n1Cc1ccc(Cl)cc1` [Compound 323] is higher in IC50: < 50 nM for the first, 50 to 500 nM for the second. The first is the more potent here.

First: Cc1cccnc1NC(=O)N1CCC[C@@H]1c1nnc(C)n1Cc1ccc(Cl)cc1 [Compound 281]
Second: Cc1ncccc1NC(=O)N1CCC[C@@H]1c1nnc(C)n1Cc1ccc(Cl)cc1 [Compound 223]
The IC50 of the first is lower: < 50 nM for the first, 50 to 500 nM for the second. The first is the more potent here.

First: N#C/N=C(\NC1(c2ccccc2)CC1)N1CCC[C@@H]1c1nnc(CO)n1Cc1ccc(Cl)cc1 [Compound 374]
Second: N#C/N=C(\N[C@H]1CCOc2cc(C(F)(F)F)ccc21)N1CCC[C@@H]1c1nnc(CO)n1Cc1ccc(Cl)cc1 [Compound 373]
The IC50 of the first is higher: 500 to 5000 nM for the first, 50 to 500 nM for the second. The second is the more potent here.

Compared with `Cc1nnc([C@H]2CC(F)CN2C(=O)N[C@H]2CCOc3cc(C(F)(F)F)ccc32)n1Cc1ccc(Cl)cc1` (stereo partly shown) [Compound 574], `Cc1nnc([C@H]2C[C@@H](O)CN2C(=O)NC2CCOc3cc(C#N)ccc32)n1Cc1ccc(Cl)cc1` (stereo partly shown) [Compound 444] is higher in IC50: < 50 nM for the first, 50 to 500 nM for the second. The first is the more potent here.

`Cc1nnc([C@H]2CCCN2C(=O)Nc2ccc(C#N)c(C(F)(F)F)c2)n1Cc1ccc(Cl)cc1` [Compound 525] and `Cc1nnc([C@H]2CCCN2C(=O)Nc2ccc(Cl)c(Cl)c2)n1Cc1ccc(Cl)cc1` [Compound 424] fall in the same range of IC50: 50 to 500 nM for the first, 50 to 500 nM for the second.

First: Cc1nnc([C@H]2CCCN2C(=O)N[C@H]2CC(C)(C)Oc3cc(C(F)(F)F)ccc32)n1Cc1ccc(Cl)cc1 [Compound 268]
Second: Cc1nnc([C@H]2CCCN2C(=O)N[C@@H]2CC(C)(C)Oc3cc(C(F)(F)F)ccc32)n1Cc1ccc(Cl)cc1 [Compound 262]
The IC50 of the first is lower: < 50 nM for the first, 500 to 5000 nM for the second.

First: Cc1nnc([C@H]2CCCN2C(=O)Nc2ccc(S(=O)(=O)O)cc2Cl)n1Cc1ccc(Cl)cc1 [Compound 456]
Second: CNS(=O)(=O)c1ccc(NC(=O)N2CCC[C@@H]2c2nnc(C)n2Cc2ccc(Cl)cc2)c(Cl)c1 [Compound 452]
The IC50 of the first is higher: 50 to 500 nM for the first, < 50 nM for the second.

Compared with `Cc1nnc([C@H]2CCCN2C(=O)Nc2cccc(-c3ccnn3C)c2)n1Cc1ccc(Cl)cc1` [Compound 620], `Cc1nnc([C@H]2CCCN2C(=O)Nc2cc(-c3ccccc3)nn2C)n1Cc1ccc(Cl)cc1` [Compound 356] is lower in IC50: 500 to 5000 nM for the first, < 50 nM for the second.

First: COC(=O)c1cccc(NC(=O)N2CCC[C@@H]2c2nnc(C)n2Cc2ccc(Cl)cc2)c1C [Compound 189]
Second: Cc1c(NC(=O)N2CCC[C@@H]2c2nnc(C)n2Cc2ccc(Cl)cc2)cccc1C(N)=O [Compound 247]
The IC50 of the first is lower: < 50 nM for the first, 500 to 5000 nM for the second.

Compared with `Cc1cccc(C(=O)N(C)C)c1NC(=O)N1CCC[C@@H]1c1nnc(C)n1Cc1ccc(Cl)cc1` [Compound 233], `Cc1cccc(C(N)=O)c1NC(=O)N1CCC[C@@H]1c1nnc(C)n1Cc1ccc(Cl)cc1` [Compound 219] is lower in IC50: 50 to 500 nM for the first, < 50 nM for the second.

First: O=C(Nc1ccc(OC(F)(F)F)cc1)N1CCC[C@@H]1c1nccn1Cc1ccc(Cl)cc1 [Compound 39]
Second: Cc1onc(-c2ccccc2)c1NC(=O)N1CCC[C@@H]1c1nccn1Cc1ccc(Cl)cc1 [Compound 35]
The IC50 of the first is higher: 50 to 500 nM for the first, < 50 nM for the second. The second is the more potent here.

First: Cc1noc(C)c1Nc1c(N2CCC[C@@H]2c2nnc(C)n2Cc2ccc(Cl)cc2)c(=O)c1=O [Compound 555]
Second: Cc1onc(-c2ccccc2)c1NC(=O)N1CCC[C@@H]1c1nnc(C)n1Cc1ccc(Cl)cc1 [Compound 126]
The IC50 of the first is higher: 500 to 5000 nM for the first, < 50 nM for the second. The second is the more potent here.

First: CC[C@H](NC(=O)N1CCC[C@@H]1c1nc(C)nn1Cc1ccc(Cl)cc1)c1c(C)cc(C(F)(F)F)cc1C [Compound 97]
Second: Cc1nc(C(F)(F)F)ccc1NC(=O)N1CCC[C@@H]1c1nncn1Cc1ccc(Cl)cc1 [Compound 557]
The IC50 of the first is higher: 500 to 5000 nM for the first, < 50 nM for the second.

Compared with `Cc1nnc([C@H]2CCCN2C(=O)N[C@H](C)c2ccccc2)n1Cc1ccc(Cl)cc1` [Compound 213], `Cc1nnc([C@H]2CCCN2C(=O)Nc2cccnc2)n1Cc1ccc(Cl)cc1` [Compound 245] is higher in IC50: < 50 nM for the first, 500 to 5000 nM for the second.

First: Cc1noc(-c2ccccc2)c1NC(=O)N1CCC[C@@H]1c1nn(C)c(C)c1Cc1ccc(Cl)cc1 [Compound 9]
Second: O=C(Nc1ccc2occc2c1)N1CCC[C@@H]1c1nncn1Cc1ccc(Cl)cc1 [Compound 121]
The IC50 of the first is higher: 500 to 5000 nM for the first, 50 to 500 nM for the second. The second is the more potent here.

`Cc1nnc([C@H]2CCCN2C(=O)Nc2cc(C(=O)N(C)C)ccc2Cl)n1Cc1ccc(Cl)cc1` [Compound 347] and `COC(=O)c1ccc(C)c(NC(=O)N2CCC[C@@H]2c2nnc(C)n2Cc2ccc(Cl)cc2)c1` [Compound 193] cannot be ordered by IC50: < 50 nM for the first, < 50 nM for the second.

`O=C(N[C@H]1CCOc2c(F)cccc21)N1CCC[C@@H]1c1ncncc1Cc1ccc(Cl)cc1` [Compound 22] and `O=C(N[C@@H]1CCCOc2ccc(Cl)cc21)N1CCC[C@@H]1c1nncn1Cc1ccc(Cl)cc1` [Compound 148] fall in the same range of IC50: 50 to 500 nM for the first, 50 to 500 nM for the second.

Compared with `O=C(Nc1ccc(Cl)cc1F)N1CCC[C@@H]1c1ncnn1Cc1ccc(Cl)cc1` [Compound 68], `COCc1nnc([C@H]2CCCN2C(=O)Nc2ccc(Cl)cc2F)n1Cc1ccc(Cl)cc1` [Compound 465] is higher in IC50: 50 to 500 nM for the first, 500 to 5000 nM for the second.

`Cc1cc(C)c(S(C)(=O)=O)cc1NC(=O)N1CCC[C@@H]1c1nnc(C)n1Cc1ccc(Cl)cc1` [Compound 361] and `Cc1nnc([C@H]2CCCN2C(=O)N[C@@H](C)c2cc3cc(Cl)ccc3o2)n1Cc1ccc(Cl)cc1` [Compound 307] cannot be ordered by IC50: < 50 nM for the first, < 50 nM for the second.

First: Cc1nnc([C@H]2CCCN2C(=O)NC2CCCc3cccc(Cl)c32)n1Cc1ccc(Cl)cc1 (stereo partly shown) [Compound 267]
Second: Cc1nnc([C@H]2CCCN2C(=O)N[C@@H]2CCCOc3ccc(Cl)cc32)n1Cc1ccc(Cl)cc1 [Compound 147]
The IC50 of the first is higher: 50 to 500 nM for the first, < 50 nM for the second.

First: Cc1nn(C)c(C)c1N/C(=N\C#N)N1CCC[C@@H]1c1nnc(C)n1Cc1ccc(Cl)cc1 [Compound 397]
Second: Cc1nc(C(F)(F)F)ccc1CC(=O)N1CCC[C@@H]1c1nnc(C)n1Cc1ccc(Cl)cc1 [Compound 610]
The IC50 of the first is higher: 50 to 500 nM for the first, < 50 nM for the second.

For `Cc1nc(C(F)(F)F)ccc1NC(=O)N1CC(C)(O)C[C@@H]1c1nnc(C)n1Cc1ccc(Cl)cc1` (stereo partly shown) [Compound 517], the IC50 was 50 to 500 nM.
